Test results: patent US20180255816A1, “SWEETENERS HAVING ENHANCED ORGANOLEPTIC PROPERTIES” (CORNELL UNIVERSITY, priority 2015, published 2018)

Experiments:
[1] = compared with dulcoside A; cited from earlier work
[2] = biological target: bovine serum albumin (BSA) (Bos taurus, UniProt P02769); assay: Saturation transfer difference (STD) NMR binding screen with BSA
Description: A first step is to assess binding of the protein to ligand under investigation. Saturation transfer difference (STD) NMR spectroscopy was utilized to screen ligands for binding to proteins. The method is based on the transfer of saturation from the protein to the bound ligands, which exchange into solution where they are detected as a reduction in the intensity of the free ligand signal. By subtracting the spectrum in which the protein is saturated from a spectrum without protein saturation produces a spectrum showing only the difference in which only the signals of the ligand(s) remain. This method was used to identify binding epitopes, because the ligand residues in direct contact with the protein show faster build-up of STD signals. This method involves a several-fold excess of ligand concentration over protein, allowing low […] protein concentrations to be used. […]
FIG. 2A is the pre-saturated 600 MHz ^1H NMR spectrum of a 2 mM rebaudioside A and 50 μM BSA in filtered orange juice with 10% D2O at 25° C. A STD spectrum (FIG. 2B) of 2 mM rebaudioside A and 50 μM BSA in filtered orange juice with on- and off-resonance saturation at 8.56 and 31 ppm, respectively was recorded to validate the stability of rebaudioside A—BSA complex in a natural and complex food matrix. […]

[3] = biological target: T1, β-lactoglobulin (Bos taurus, UniProt P02754); assay: STD NMR binding with β-lactoglobulin; conditions: 1 mM rebaudioside A, 20 μM β-lactoglobulin, 40° C., pH 3
T1 sequence (P02754 17-178): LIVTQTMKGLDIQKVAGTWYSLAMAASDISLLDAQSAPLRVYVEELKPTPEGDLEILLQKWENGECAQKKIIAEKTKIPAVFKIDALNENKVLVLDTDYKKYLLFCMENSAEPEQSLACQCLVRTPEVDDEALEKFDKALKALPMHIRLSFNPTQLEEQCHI
Description: A first step is to assess binding of the protein to ligand under investigation. Saturation transfer difference (STD) NMR spectroscopy was utilized to screen ligands for binding to proteins. The method is based on the transfer of saturation from the protein to the bound ligands, which exchange into solution where they are detected as a reduction in the intensity of the free ligand signal. By subtracting the spectrum in which the protein is saturated from a spectrum without protein saturation produces a spectrum showing only the difference in which only the signals of the ligand(s) remain. This method was used to identify binding epitopes, because the ligand residues in direct contact with the protein show faster build-up of STD signals. This method involves a several-fold excess of ligand concentration over protein, allowing low […] protein concentrations to be used.
FIG. 8A is the solvent suppressed (WET) ^1H NMR spectrum of a sample containing 1 mM rebaudioside A and 20 μM β-lactoglobulin at 40° C. and pH 3. FIG. 8B is the STD spectrum of the same sample. Separate FIDs were stored with on-resonance saturation at 7.19 ppm and off-resonance saturation at −15 ppm.

[4] = system: panelists; assay: Paired comparison taste test of organoleptic properties by 5 panelists; type: in vivo; conditions: taste panel, solution in 50 mL
Description: The following compositions were formulated and tested for their organoleptic properties through a paired comparison test by 5 panelists.

Sequence of bovine serum albumin (BSA) (P02769 25-607): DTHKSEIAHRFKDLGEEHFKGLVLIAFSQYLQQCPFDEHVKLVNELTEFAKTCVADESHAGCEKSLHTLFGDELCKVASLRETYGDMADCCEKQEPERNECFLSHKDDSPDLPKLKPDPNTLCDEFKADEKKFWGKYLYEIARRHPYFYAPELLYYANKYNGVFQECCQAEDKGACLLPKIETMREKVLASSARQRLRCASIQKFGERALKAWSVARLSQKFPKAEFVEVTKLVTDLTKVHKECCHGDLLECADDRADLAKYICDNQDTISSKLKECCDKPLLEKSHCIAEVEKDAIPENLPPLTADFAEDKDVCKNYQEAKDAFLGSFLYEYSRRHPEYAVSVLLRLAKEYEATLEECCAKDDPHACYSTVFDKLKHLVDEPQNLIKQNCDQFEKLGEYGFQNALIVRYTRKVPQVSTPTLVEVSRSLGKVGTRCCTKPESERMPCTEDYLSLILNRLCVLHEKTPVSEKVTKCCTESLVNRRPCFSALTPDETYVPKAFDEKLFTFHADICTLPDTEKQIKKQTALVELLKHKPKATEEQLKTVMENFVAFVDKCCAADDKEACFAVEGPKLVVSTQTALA

Row | Compound | bitterness relative to dulcoside A [1] | sweetness relative to dulcoside A [1] | binding to BSA by STD spectrum ([2]; 1 mM rebaudioside A, 20 μM BSA, D2O, pH 3.0, 40° C., saturation at 7.19 ppm) | binding to BSA by STD spectrum in food matrix ([2]; 2 mM rebaudioside A, 50 μM BSA, filtered orange juice with 10% D2O, 25° C.) | binding to β-lactoglobulin by STD spectrum [3] | Quality: bitter after taste [4] | Quality: onset of sweetness [4]
1 | C=C1C[C@@]23CC[C@H]4[C@@](C)(CCC[C@@]4(C)C(=O)O[C@@H]4O[C@H](CO)[C@@H](O)[C@H](O)[C@H]4O[C@@H]4O[C@H](CO)[C@@H](O)[C@H](O)[C@H]4O)[C@@H]2CC[C@]1(O[C@@H]1O[C@H](CO)[C@@H](O)[C@H](O[C@@H]2O[C@H](CO)[C@@H](O)[C@H](O)[C@H]2O)[C@H]1O[C@@H]1O[C@H](CO)[C@@H](O)[C@H](O)[C@H]1O)C3 [rebaudioside D] | two-thirds less bitter | around five times sweeter |  |  |  |  | 
2 | rebaudioside A |  |  | binds to BSA | specific binding between Rebaudioside A and BSA occurs | capable of binding to β-lactoglobulin | sweetness and bitter after taste | Slow onset of sweetness
